Measurements published in patent US4003891A, “Preparation of metal complexes of 6-methoxy-1-phenazinol 5,10 dioxide” (Hoffmann-La Roche Inc., priority 1975, dated 1977).

Experiments:
S. aureus = experiment: In vivo anti-microbial efficacy against bacteria (ED50')
Experimental: (§1) For example, the anti-microbial activity of calcium myxin dihydrate, prepared by the method of this invention, is evaluated and compared to that of myxin itself both in vivo against 4 strains of bacteria and in vitro against yeast and fungus infections.

S. agalactiae = experiment: as above
Experimental: as §1

P. aeruginosa = experiment: as above
Experimental: as §1

E. coli = experiment: as above
Experimental: as §1

Solubility in water = type: physicochemical

6-methoxy-1-phenazinol 5,10-dioxide, calcium dihydrate complex [Calcium Myxin Dihydrate]
ED50' (S. aureus): < 20 mg/L | ED50' (S. agalactiae): < 4 mg/L | ED50' (P. aeruginosa): 20 mg/L | ED50' (E. coli): 60 mg/L

COc1cccc2c1[n+]([O-])c1cccc(O)c1[n+]2[O-] [Myxin, 6-methoxy-1-phenazinol 5,10-dioxide]
solubility in water (Solubility in water): very slightly soluble
